Reference: US11957680B2, “Pyruvate kinase activators for use in treating blood disorders” (Agios Pharmaceuticals, Inc., priority 2017, dated 2024)

Assays:
wild type PKR [1] = target: T1, wild type PKR (Homo sapiens, UniProt P30613); assay: Cell based ATP assay in purified red blood cells (Cell-Titer-Glo); parameters: endogenous in cells; host or cells: purified red blood cells from healthy volunteers; conditions: overnight at 37° C., ATP levels
How it was run: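 RBCs from healthy human donors' K2EDTA blood were leukocyte-depleted by filtration and resuspended in AGAM (PBS, 1% glucose, adenine, mannitol). Cells at 1×10^7 cells/mL were incubated overnight at 37 °C with serially diluted compound at 0.1% DMSO, and ATP was read by Cell-Titer-Glo luminescence.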

wild type PKR [2] = target: T1, wild type PKR; assay: PKR (wild type) enzyme AC50 assay, LDH/NADH-coupled, absorbance at 340 nm; assay type: biochemical; conditions: for AC50: Table 2, enzyme assay, read-out: PKR WT AC50; for EC50: Table 4, AC50, enzyme assay, read-out: PKR WT
How it was run: (§1)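 Enzyme amount (40-400 ng/well) and substrate levels vary by PKR variant. The coupled read-out uses LDH (0.5 units) consuming NADH, tracked at 340 nm at room temperature after ADP initiation, following a one-hour compound preincubation.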

PKR K410E = PKR K410E (Homo sapiens, UniProt P30613, K410E); assay: PKR mutant assay (K410E), AC50, LDH/NADH-coupled, absorbance at 340 nm; assay type: biochemical; conditions: for AC50: Table 2, enzyme assay
How it was run: as §1

PKR R510Q = PKR R510Q (Homo sapiens, UniProt P30613, R510Q); assay: PKR mutant assay (R510Q), AC50, LDH/NADH-coupled, absorbance at 340 nm; assay type: biochemical; conditions: for AC50: Table 2, enzyme assay, read-out: PK R510Q AC50; for EC50: read-out: PK R510Q
How it was run: as §1

Chain of PKR K410E (P30613 whole entry K410E): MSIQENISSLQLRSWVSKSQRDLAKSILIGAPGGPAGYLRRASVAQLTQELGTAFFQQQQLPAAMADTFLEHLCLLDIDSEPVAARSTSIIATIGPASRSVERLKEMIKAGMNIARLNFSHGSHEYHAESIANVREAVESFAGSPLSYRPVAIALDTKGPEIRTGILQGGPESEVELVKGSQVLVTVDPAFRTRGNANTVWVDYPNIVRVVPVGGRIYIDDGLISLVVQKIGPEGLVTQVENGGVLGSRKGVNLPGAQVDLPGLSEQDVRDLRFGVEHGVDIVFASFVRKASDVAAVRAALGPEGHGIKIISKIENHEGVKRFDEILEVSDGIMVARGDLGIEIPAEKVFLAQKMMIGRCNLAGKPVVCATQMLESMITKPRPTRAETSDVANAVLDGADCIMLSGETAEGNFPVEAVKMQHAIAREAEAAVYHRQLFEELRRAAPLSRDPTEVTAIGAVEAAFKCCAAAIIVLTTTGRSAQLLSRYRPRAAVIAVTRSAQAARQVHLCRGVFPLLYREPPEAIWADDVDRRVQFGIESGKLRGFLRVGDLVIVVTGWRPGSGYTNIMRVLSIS
Chain of PKR R510Q (P30613 whole entry R510Q): as the sequence (P30613 whole entry K410E) above, with E410K, R510Q counted along it
T1 sequence (P30613 whole entry): as the sequence (P30613 whole entry K410E) above, with E410K counted along it

SMILES	AC50 (wild type PKR [1]; Table 2, RBCs) [µM]	AC50 (wild type PKR [2]) [µM]	AC50 (PKR K410E) [µM]	AC50 (PKR R510Q) [µM]	also measured
CSc1nc2c(s1)c1cnn(Cc3cccc4sc(N)nc34)c(=O)c1n2C [Compound 114]		< 0.3	< 0.3	< 0.3	Cell based ATP assay AC50 (wild type PKR [1]; Table 2, RBCs): No Fit
Cn1c2nc(Cc3cscn3)sc2c2cnn(Cc3ccccc3)c(=O)c21 [Compound 270]					EC50 (wild type PKR [1]; Table 4, AC50, RBCs): ≤ 1 µM; EC50 (wild type PKR [2]): < 0.3 µM; EC50 (PKR K410E; Table 4, AC50, enzyme assay): < 0.3 µM; EC50 (PKR R510Q; Table 4, AC50, enzyme assay): < 0.3 µM
Cn1c2nc(Cc3cccc(=O)[nH]3)sc2c2cnn(Cc3cccc4[nH]ncc34)c(=O)c21 [Compound 170]	≤ 1	< 0.3	< 0.3	< 0.3	
C#CCn1ncc2c3sc(Cc4ccccn4)nc3n(C)c2c1=O [Compound 404]					EC50 (wild type PKR [1]; Table 4, AC50, RBCs): ≤ 1 µM; EC50 (wild type PKR [2]): < 0.3 µM; EC50 (PKR K410E; Table 4, AC50, enzyme assay): < 0.3 µM; EC50 (PKR R510Q; Table 4, AC50, enzyme assay): < 0.3 µM
Cn1c2nc(CN)sc2c2cnn(Cc3cccc4[nH]ncc34)c(=O)c21 [Compound 132]	> 1	> 0.8	0.301 to 0.8	0.301 to 0.8	
COc1ncc(Cc2nc3c(s2)c2cnn(Cc4cccc5[nH]ncc45)c(=O)c2n3C)cn1 [Compound 207]					EC50 (wild type PKR [1]; Table 4, AC50, RBCs): ≤ 1 µM; EC50 (wild type PKR [2]): 0.301 to 0.8 µM; EC50 (PKR K410E; Table 4, AC50, enzyme assay): 0.301 to 0.8 µM; EC50 (PKR R510Q; Table 4, AC50, enzyme assay): > 0.8 µM
O=c1c2c(cnn1Cc1ccccc1)c1sc(Cc3ccccn3)nc1n2-c1ccccc1 [Compound 405]					Cell based ATP assay (wild type PKR [1]; Table 4, AC50, RBCs): No Fit; EC50 (wild type PKR [2]): > 0.8 µM; PKR K410E (PKR K410E; Table 4, AC50, enzyme assay): No Fit; PK R510Q (PKR R510Q; Table 4, AC50, enzyme assay): No Fit
Cn1c2nc(Cc3cc[nH]n3)sc2c2cnn(Cc3n[nH]c4cccnc34)c(=O)c21 [Compound 379]					EC50 (wild type PKR [1]; Table 4, AC50, RBCs): ≤ 1 µM; EC50 (wild type PKR [2]): < 0.3 µM; EC50 (PKR K410E; Table 4, AC50, enzyme assay): < 0.3 µM; EC50 (PKR R510Q; Table 4, AC50, enzyme assay): < 0.3 µM
Cn1c2nc(C#N)sc2c2cnn(Cc3csc(N)n3)c(=O)c21 [Compound 145]	> 1	0.301 to 0.8	0.301 to 0.8	> 0.8	
Cc1nc2c(s1)c1cnn(Cc3cccc(F)c3)c(=O)c1n2C [Compound 6]	> 1	> 0.8	> 0.8	> 0.8	
Cn1c2nc(Cc3cc[nH]n3)sc2c2cnn(Cc3cccc4[nH]c(=O)[nH]c34)c(=O)c21 [Compound 252]					EC50 (wild type PKR [1]; Table 4, AC50, RBCs): ≤ 1 µM; EC50 (wild type PKR [2]): < 0.3 µM; EC50 (PKR K410E; Table 4, AC50, enzyme assay): < 0.3 µM; EC50 (PKR R510Q; Table 4, AC50, enzyme assay): < 0.3 µM
CSc1nc2c(s1)c1cnn(Cc3cccc(C(C)(C)O)c3)c(=O)c1n2C [Compound 85]	≤ 1	< 0.3	0.301 to 0.8	< 0.3	
Cn1c2nc(Cc3c[nH]cn3)sc2c2cnn(Cc3cccc4[nH]ncc34)c(=O)c21 [Compound 205]					EC50 (wild type PKR [1]; Table 4, AC50, RBCs): ≤ 1 µM; EC50 (wild type PKR [2]): < 0.3 µM; EC50 (PKR K410E; Table 4, AC50, enzyme assay): < 0.3 µM; EC50 (PKR R510Q; Table 4, AC50, enzyme assay): < 0.3 µM
COc1cccc(Cn2ncc3c4sc(I)nc4n(C)c3c2=O)c1 [Compound 40]	> 1	0.301 to 0.8	0.301 to 0.8	< 0.3	
CCOC(=O)c1scnc1Cc1nc2c(s1)c1cnn(Cc3cccc4[nH]ncc34)c(=O)c1n2C [Compound 165]	≤ 1	0.301 to 0.8	> 0.8	0.301 to 0.8	
Cn1c2nc(S(C)(=O)=O)sc2c2cnn(Cc3cccc4[nH]ncc34)c(=O)c21 [Compound 92]	≤ 1	< 0.3	0.301 to 0.8	0.301 to 0.8	
Cn1c2nc(C(N)c3cc[nH]n3)sc2c2cnn(Cc3cccc4[nH]ncc34)c(=O)c21 (stereo not drawn) [Compound 177]	≤ 1	< 0.3	< 0.3	< 0.3	
Cn1c2nc(Cc3cc(Cl)[nH]n3)sc2c2cnn(Cc3cccc4[nH]ncc34)c(=O)c21 [Compound 233]					EC50 (wild type PKR [1]; Table 4, AC50, RBCs): ≤ 1 µM; EC50 (wild type PKR [2]): < 0.3 µM; EC50 (PKR K410E; Table 4, AC50, enzyme assay): < 0.3 µM; EC50 (PKR R510Q; Table 4, AC50, enzyme assay): < 0.3 µM
Cn1c2nc(Cc3cc[nH]n3)sc2c2cnn(Cc3ccc4c(n3)NCC4)c(=O)c21 [Compound 384]					EC50 (wild type PKR [1]; Table 4, AC50, RBCs): ≤ 1 µM; EC50 (wild type PKR [2]): < 0.3 µM; EC50 (PKR K410E; Table 4, AC50, enzyme assay): < 0.3 µM; EC50 (PKR R510Q; Table 4, AC50, enzyme assay): < 0.3 µM
COc1cc(Cc2nc3c(s2)c2cnn(Cc4cccc5[nH]ncc45)c(=O)c2n3C)ccn1 [Compound 215]					EC50 (wild type PKR [1]; Table 4, AC50, RBCs): ≤ 1 µM; EC50 (wild type PKR [2]): < 0.3 µM; EC50 (PKR K410E; Table 4, AC50, enzyme assay): < 0.3 µM; EC50 (PKR R510Q; Table 4, AC50, enzyme assay): < 0.3 µM
Cn1c2nc(Cc3cccc(C(N)=O)c3)sc2c2cnn(Cc3cccc4[nH]ncc34)c(=O)c21 [Compound 100]	≤ 1	< 0.3	< 0.3	< 0.3	
Cn1c2nc(C(N)=O)sc2c2cnn(Cc3csc(N)n3)c(=O)c21 [Compound 146]	≤ 1	0.301 to 0.8	< 0.3	0.301 to 0.8	
Cc1nc2c(s1)c1cnn(Cc3cccc(CN)c3)c(=O)c1n2C [Compound 58]	> 1	< 0.3	< 0.3	< 0.3	
Cn1c2nc(Cc3ccccn3)sc2c2cnn(Cc3cccc4[nH]ncc34)c(=O)c21 [Compound 151]	≤ 1	< 0.3	< 0.3	< 0.3	

Continued, in another order:

AC50 (wild type PKR [1]; Table 2, RBCs) [µM]	AC50 (wild type PKR [2]) [µM]	AC50 (PKR K410E) [µM]	AC50 (PKR R510Q) [µM]	SMILES	also measured
> 1	> 0.8	> 0.8	< 0.3	Cc1nc2c(s1)c1cnn(Cc3cccc(NC(N)=O)c3)c(=O)c1n2C [Compound 15]	
> 1	< 0.3	< 0.3	< 0.3	Cn1c2nc(Cc3cccc(CO)c3)sc2c2cnn(Cc3cccc4[nH]ncc34)c(=O)c21 [Compound 118]	
≤ 1	< 0.3	< 0.3	0.301 to 0.8	Cn1c2nc([S+](C)[O-])sc2c2cnn(Cc3cccc(C(C)(C)O)c3)c(=O)c21 (stereo not drawn) [Compound 87]	
> 1	0.301 to 0.8	0.301 to 0.8	< 0.3	COc1cccc(Cn2ncc3c4scnc4n(C)c3c2=O)c1 [Compound 19]	
≤ 1	< 0.3	< 0.3	< 0.3	Cn1c2nc(Cc3cc[nH]n3)sc2c2cnn(Cc3cccc(C#N)c3)c(=O)c21 [Compound 182]	
> 1	< 0.3	< 0.3	< 0.3	CCc1nc2c(s1)c1cnn(Cc3cccc(OC)c3)c(=O)c1n2C [Compound 39]	
≤ 1	< 0.3	< 0.3	< 0.3	Cn1c2nc([S+](C)[O-])sc2c2cnn(Cc3cccc4c3CCN4)c(=O)c21 (stereo not drawn) [Compound 79]	
> 1	> 0.8	> 0.8	> 0.8	Cn1c2nc(Cc3ccc(Cl)nc3)sc2c2cnn(Cc3cccc4[nH]ncc34)c(=O)c21 [Compound 150]	
> 1	> 0.8	> 0.8	> 0.8	Cn1c2nc(C3(c4ccccc4)CC3)sc2c2cnn(Cc3cccc4[nH]ncc34)c(=O)c21 [Compound 140]	
≤ 1	< 0.3	< 0.3	< 0.3	Cn1c2nc(Cc3ccc(O)cc3)sc2c2cnn(Cc3cccc4[nH]ncc34)c(=O)c21 [Compound 77]	
> 1	0.301 to 0.8	> 0.8	0.301 to 0.8	Cn1c2nc(SCc3ccccc3)sc2c2cnn(Cc3cccc4[nH]ncc34)c(=O)c21 [Compound 121]	
≤ 1	0.301 to 0.8	0.301 to 0.8	0.301 to 0.8	CC(c1ccccc1)c1nc2c(s1)c1cnn(Cc3cccc4c3cnn4C)c(=O)c1n2C (stereo not drawn) [Compound 120]	
